These results are taken from patent US8183284B2, “Compositions for reducing the incidence of drug induced arrhythmia” (Warner Chilcott Company, LLC, priority 2005, dated 2012).

A short description of this data set: Clinical trials of oral azimilide: incidence of torsades de pointes (TdP). It is filed as in vivo, patients. The method, then: Clinical trials are conducted where 5375 patients receive oral doses of azimilide. Patients are administered azimilide using a 3-day, twice daily loading regimen of 150-250 mg/day followed by a daily maintenance regimen (75-125 mg/day) of ½ of the loading dose, or are given daily azimilide (75, 100 or 125 mg/day) without a loading regimen. Overall about 75% of the patients are men and about 25% are women. Two cases of TdP are found in placebo-assigned patients and 54 azimilide-associated cases of TdP. Lack of aspirin use or lack of statin use is more frequent in azimilide patients with TdP. A total of 1191 (22%) patients (243 [16%] females and 948 [25%] males) are taking statins and aspirin as concomitant medication. Among the 54 patients (30 females and 24 males) who experienced TdP, 35% are on aspirin, 20% are on statins and only 11% are taking both a statin and aspirin as concomitant medication.

As for `CN1CCN(CCCCN2C(=O)CN(/N=C/c3ccc(-c4ccc(Cl)cc4)o3)C2=O)CC1` [azimilide], the “azimilide-associated cases of TdP” value (5375 patients receiving oral azimilide 75-125 mg/day, with or without 3-day loading regimen of 150-250 mg/day) worked out at 54 cases. Also, for the setting “among the 54 patients (30 females, 24 males) who experienced TdP, concomitant aspirin”, the “share of patients who experienced TdP that are on aspirin” value amounted to 35%. For the same molecule, where the note is “among the 54 patients who experienced TdP, concomitant statins”, the “share of patients who experienced TdP that are on statins” value is on record as 20%. The “share of patients who experienced TdP that are taking both a statin and aspirin” value (among the 54 patients who experienced TdP, overall 1191 (22%) of patients take statins and aspirin) is reported as 11%.
